# Measured values as given in ChEMBL document CHEMBL1151245, “Structures and histamine release inhibitory effects of prenylated orcinol derivatives from Rhododendron dauricum” (J Nat Prod, 2004).
# System: Mast cell
# Assay: Inhibition of compound 48/80-induced histamine release in Wistar rat peritoneal mast cells; call rule not given here
# Format: functional, cell-based
row,IC50,Structure (SMILES)
1,1.6 µM,C=C(C)C(O)CC/C(C)=C/CC[C@]1(C)C=Cc2c(O)cc(C)cc2O1 (stereo partly drawn) [DAURICHROMENE A]
2,4.4 µM,C=C(CCC=C(C)C)C(O)CC[C@]1(C)C=Cc2c(O)cc(C)cc2O1 (stereo partly drawn) [DAURICHROMENE B]
3,87.4 µM,C/C(=C\CC[C@]1(C)C=Cc2c(O)cc(C)cc2O1)C/C=C\C(C)(C)O [DAURICHROMENE C]
4,1.3 µM,C/C(=C\CC/C(C)=C/CC[C@]1(C)C=Cc2c(O)cc(C)cc2O1)CO [DAURICHROMENE D]
5,81.6 µM,CC(C)=CCC/C(C)=C/CC/C(C)=C/Cc1c(O)cc(C)cc1O [GRIFOLIN]
6,250 µM,COc1ccc2c(c1)c(CC(=O)O)c(C)n2C(=O)c1ccc(Cl)cc1 [INDOMETHACIN]
7,Not Active,Cc1cc(O)cc(O)c1 [ORCINOL]

row,Structure (SMILES),IC50
1,CC(C)=CCC/C(C)=C/CC[C@]1(C)C=Cc2c(O)cc(C)cc2O1 [CONFLUENTIN],205 µM
